Data reported in the CheMixHub viscosity set.

Assay: xn = mol fraction of the nth substance listed

CC(=O)CC(C)(C)O + O
Settings	viscosity [mPa·s]
298.15 K, 101 kPa, x1 = 0.017	1.261
298.15 K, 101 kPa, x2 = 0.2547	4.143
298.15 K, 101 kPa, x2 = 0.4824	5.758
298.15 K, 101 kPa, x2 = 0.6067	6.204
298.15 K, 101 kPa, x2 = 0.7114	5.917
298.15 K, 101 kPa, x2 = 0.776	5.315
298.15 K, 101 kPa, x2 = 0.8342	4.609
298.15 K, 101 kPa, x2 = 0.886	3.616
298.15 K, 101 kPa, x2 = 0.9237	2.698
298.15 K, 101 kPa, x2 = 0.9508	2.022
298.15 K, 101 kPa, x2 = 0.9511	2.022
298.15 K, 101 kPa, x2 = 0.9717	1.516
303.15 K, 100 kPa, x2 = 0.1	2.81
303.15 K, 100 kPa, x2 = 0.2	3.27
303.15 K, 100 kPa, x2 = 0.3	3.65
303.15 K, 100 kPa, x2 = 0.4	4.15
303.15 K, 100 kPa, x2 = 0.5	4.55
303.15 K, 100 kPa, x2 = 0.6	4.71
303.15 K, 100 kPa, x2 = 0.7	4.57
303.15 K, 100 kPa, x2 = 0.8	4.08
303.15 K, 100 kPa, x2 = 0.9	2.6
323.15 K, 100 kPa, x2 = 0.1	1.69
323.15 K, 100 kPa, x2 = 0.2	1.82
323.15 K, 100 kPa, x2 = 0.3	2.06
323.15 K, 100 kPa, x2 = 0.4	2.1
323.15 K, 100 kPa, x2 = 0.5	2.3
323.15 K, 100 kPa, x2 = 0.6	2.32
323.15 K, 100 kPa, x2 = 0.7	2.31
323.15 K, 100 kPa, x2 = 0.8	2.09
323.15 K, 100 kPa, x2 = 0.9	1.48

CC(C)CC(C)O (stereo not drawn) + CO
298.15 K, 101.33 kPa
Settings	viscosity [mPa·s]
x2 = 0.1191	3.504
x2 = 0.2078	3.263
x2 = 0.3157	2.847
x2 = 0.4359	2.297
x2 = 0.5125	1.958
x2 = 0.6519	1.459
x2 = 0.7023	1.297
x2 = 0.8038	1.002
x2 = 0.9042	0.7423

CCN(CC)S(C)(=O)=O + CC(C)O
303.15 K, 101.33 kPa
Settings	viscosity [mPa·s]
x1 = 0.068	15930
x1 = 0.1441	15440
x1 = 0.2157	15650
x1 = 0.2582	15980
x1 = 0.3391	16860
x1 = 0.4088	17920
x1 = 0.4524	18630
x1 = 0.5136	19840
x1 = 0.5952	21830
x1 = 0.6857	24330
x1 = 0.7556	26840
x1 = 0.8417	30570
x1 = 0.9259	35180

[K+].[O-][Cl+2]([O-])[O-] + O
viscosity [mPa·s], 100 kPa
Settings	293.15 K	298.15 K	303.15 K	308.15 K	313.15 K	318.15 K
x1 = 0.000182	0.995	0.888	0.799	0.725	0.661	0.607
x1 = 0.0018	0.984	0.878	0.789	0.717	0.655	0.602
x1 = 0.003608	0.979	0.874	0.788	0.717	0.656	0.603
x1 = 0.005413	0.977	0.873	0.788	0.718	0.656	0.604
x1 = 0.00717	0.977	0.876	0.791	0.72	0.659	0.608
x1 = 0.008941	0.983	0.881	0.797	0.725	0.665	0.613

CCCCCCCO + CCCCO
viscosity [mPa·s], 101 kPa
Settings	298.15 K	308.15 K	318.15 K
x2 = 0.08	5.586	4.11	3.063
x2 = 0.15	5.398	3.965	2.971
x2 = 0.22	5.211	3.829	2.883
x2 = 0.28	5.027	3.7	2.798
x2 = 0.34	4.844	3.576	2.714
x2 = 0.4	4.664	3.456	2.632
x2 = 0.46	4.487	3.34	2.551
x2 = 0.51	4.313	3.226	2.47
x2 = 0.56	4.142	3.115	2.391
x2 = 0.61	3.976	3.004	2.312
x2 = 0.66	3.813	2.894	2.233
x2 = 0.7	3.654	2.785	2.155
x2 = 0.74	3.499	2.677	2.077
x2 = 0.79	3.348	2.57	2
x2 = 0.82	3.201	2.463	1.923
x2 = 0.86	3.058	2.359	1.847
x2 = 0.9	2.919	2.256	1.772
x2 = 0.93	2.783	2.157	1.698
x2 = 0.97	2.652	2.061	1.627

NCCCC[C@H](N)C(=O)O + O
viscosity [mPa·s], 101 kPa
Settings	293.15 K	298.15 K	303.15 K	308.15 K	313.15 K
x1 = 0.006	1.261	1.129	1.016	0.9447	0.8984
x1 = 0.014	1.324	1.194	1.079	1.013	0.9598

CS(C)=O + Cc1ccc(C)cc1
viscosity [mPa·s], 101 kPa
Settings	x1 = 0.0993	x1 = 0.2067	x1 = 0.3019	x1 = 0.4	x1 = 0.5042	x1 = 0.59	x1 = 0.6956	x1 = 0.801	x1 = 0.8963
293.15 K	0.695	0.771	0.857	0.935	1.032	1.2	1.372	1.586	1.84
303.15 K	0.612	0.676	0.744	0.828	0.913	1.027	1.167	1.339	1.557
313.15 K	0.551	0.605	0.661	0.728	0.787	0.89	1.004	1.142	1.302
323.15 K	0.49	0.555	0.582	0.636	0.705	0.768	0.861	0.971	1.1

CCOC(=O)C(C)O (stereo not drawn) + OCCCO
101 kPa
Settings	viscosity [mPa·s]
298.15 K, x1 = 0.4996	9.585
303.15 K, x1 = 0.3	14.35
303.15 K, x1 = 0.8	3.405
313.15 K, x1 = 0.3998	7.365
318.15 K, x1 = 0.3	8.235
323.15 K, x1 = 0.5997	3.235

CCCCC + CCCCCCCCCCCCCCCC
298.15 K, 101.33 kPa
Settings	viscosity [mPa·s]
x1 = 0.1111	2.574
x1 = 0.2119	2.17
x1 = 0.3099	1.816
x1 = 0.4166	1.457
x1 = 0.5122	1.172
x1 = 0.6089	0.9218
x1 = 0.7034	0.7004
x1 = 0.8034	0.5086
x1 = 0.9029	0.3464

CC(=O)O.NCCO + CCO
viscosity [mPa·s], 101 kPa
Settings	x1 = 0.0193	x2 = 0.7231	x2 = 0.7996	x2 = 0.8604	x2 = 0.9136	x2 = 0.9373	x2 = 0.9595
293.15 K	1.608	20.45	9.894	5.502	3.168	2.55	1.998
298.15 K	1.458	16.96	8.454	4.8	2.85	2.28	1.806
303.15 K	1.32	14.22	7.26	4.212	2.55	2.07	1.65

C1CCCCCCC1 + CCCCCCC
Settings	viscosity [mPa·s]
308.15 K, 101 kPa, x2 = 0.1897	1.125

CCCCCCCO + CCO
viscosity [mPa·s], 101 kPa
Settings	298.15 K	308.15 K	318.15 K
x2 = 0.05	5.456	4.038	3.025
x2 = 0.1	5.144	3.82	2.89
x2 = 0.15	4.838	3.607	2.75
x2 = 0.2	4.539	3.4	2.607
x2 = 0.25	4.249	3.199	2.465
x2 = 0.3	3.969	3.005	2.325
x2 = 0.35	3.699	2.817	2.188
x2 = 0.4	3.439	2.636	2.055
x2 = 0.45	3.191	2.462	1.927
x2 = 0.5	2.954	2.294	1.805
x2 = 0.55	2.727	2.132	1.688
x2 = 0.6	2.512	1.977	1.577
x2 = 0.65	2.306	1.827	1.471
x2 = 0.7	2.111	1.682	1.369
x2 = 0.75	1.924	1.543	1.271
x2 = 0.8	1.744	1.408	1.174
x2 = 0.85	1.571	1.276	1.078
x2 = 0.9	1.403	1.147	0.9796
x2 = 0.95	1.237	1.021	0.8769

OC1CCCCC1 + Oc1ccccc1
298.15 K, 101.3 kPa
Settings	viscosity [mPa·s]
x1 = 0.79	27.6
x1 = 0.89	37.1

CC/C=C\CCO + CCCCCC
viscosity [mPa·s], 100 kPa
Settings	293.15 K	298.15 K	303.15 K	308.15 K	313.15 K	318.15 K
x1 = 0.025	0.3277	0.3128	0.3002	0.2869	0.2756	0.2648
x1 = 0.0501	0.3397	0.3264	0.3121	0.2966	0.2844	0.2727
x1 = 0.1	0.3655	0.3504	0.3343	0.3164	0.3024	0.2892
x1 = 0.2001	0.4403	0.4139	0.392	0.369	0.3498	0.3318
x1 = 0.2999	0.5582	0.5227	0.4881	0.4558	0.4197	0.3967
x1 = 0.4003	0.6649	0.6196	0.5788	0.5377	0.497	0.467
x1 = 0.4994	0.8527	0.7851	0.7244	0.6686	0.6173	0.5715
x1 = 0.5998	1.103	1.005	0.9179	0.8404	0.7733	0.7131
x1 = 0.6998	1.451	1.306	1.18	1.07	0.978	0.889
x1 = 0.7995	1.878	1.701	1.522	1.366	1.238	1.126
x1 = 0.8996	2.51	2.234	1.981	1.763	1.58	1.429
